Data as given in ChEMBL document CHEMBL4052680, “Semi-quantitative models for identifying potent and selective transthyretin amyloidogenesis inhibitors” (Bioorg Med Chem Lett, 2017).

Columns and labels:
Rattus norvegicus [1] = organism: Rattus norvegicus; assay: Displacement of [125I]-triiodothyronine from thyroid hormone receptor in rat liver membrane homogenates incubated for 18 hrs by scintillation counting method; format: cell membranes; design: concentration or dose not given beside the values; conditions: concentration not given here
Rattus norvegicus [2] = organism: Rattus norvegicus; assay: Displacement of [125I]-triiodothyronine from thyroid hormone receptor in rat liver membrane homogenates assessed as relative T3 displacement incubated for 18 hrs by scintillation counting method relative to control; format: cell membranes

SMILES | inhibition (Rattus norvegicus [1]) [%] | relative binding affinity (RBA) (Rattus norvegicus [2])
Cc1cc(-c2cc(C)c(O)c(C)c2)cc(C)c1O | 11 | 0.11
Oc1ccccc1/C=C/c1cc(Br)c(O)c(Br)c1 | 22 | 0.22
Clc1cccc(Cl)c1/C=C/c1cc(Br)cc(Br)c1 | 13 | 0.13
Cc1cc(-c2nc3c([N+](=O)[O-])cccc3o2)cc(C)c1O | 16 | 0.16
Oc1ccc(/C=C/c2cc(Br)c(O)c(Br)c2)cc1 | 50 | 0.5
Oc1c(Br)cc(/C=C/c2ccccc2Br)cc1Br | 69 | 0.69
COc1cccc(OC)c1/C=C/c1cc(Br)c(N)c(Br)c1 | 2 | 0.02
Clc1cccc(Cl)c1COc1cc(Br)cc(Br)c1 | 4 | 0.04
O=[N+]([O-])c1ccccc1S(=O)(=O)Nc1cc(Cl)c(O)c(Cl)c1 | 7 | 0.07
Cc1cc(C)cc(-c2cccc3oc4ccccc4c23)c1 | 2 | 0.02
Nc1cccc(/C=C/c2cc(Br)c(N)c(Br)c2)c1 | 3 | 0.03
Brc1cc(Br)cc(-c2cccc3oc4ccccc4c23)c1 | 0 | 0
COc1cccc(/C=C/c2cc(Br)c(O)c(Br)c2)c1 | 0 | 0
Cc1ccccc1/C=C/c1cc(Br)c(O)c(Br)c1 | 44 | 0.44
Cc1cc(Oc2cccc3oc4ccccc4c23)cc(C)c1O | 0 | 0
Oc1c(Br)cc(/C=C/c2ccccc2C(F)(F)F)cc1Br | 69 | 0.69
Brc1cc(Br)cc(Oc2cccc3oc4ccccc4c23)c1 | 0 | 0
Nc1ccc(/C=C/c2cc(Br)c(N)c(Br)c2)cc1 | 0 | 0
Cc1cc(C)cc(/C=C/c2cc(Br)c(O)c(Br)c2)c1 | 20 | 0.2
COc1ccccc1/C=C/c1cc(Br)c(O)c(Br)c1 | 32 | 0.32
COc1ccccc1NC(=O)Nc1cc(Br)c(O)c(Br)c1 | 14 | 0.14

SMILES | inhibition (Rattus norvegicus [1]) [%] | relative binding affinity (RBA) (Rattus norvegicus [2])
COc1ccccc1C(=O)Nc1cc(Br)cc(Br)c1 | 10 | 0.1
Oc1c(Br)cc(/C=C/c2ccccc2I)cc1Br | 55 | 0.55
O=[N+]([O-])c1ccccc1/C=C/c1cc(Br)c(O)c(Br)c1 | 21 | 0.21
Oc1c(I)cc(-c2nc3cccc(Cl)c3o2)cc1I | 92 | 0.92
Cc1cc(C)cc(Oc2cccc3oc4ccccc4c23)c1 | 0 | 0
Oc1c(Br)cc(Oc2cccc3oc4ccccc4c23)cc1Br | 94 | 0.94
Cc1cc(-c2cccc3oc4ccccc4c23)cc(C)c1O | 0 | 0
COc1cccc(OC)c1/C=C/c1cc(Br)c(O)c(Br)c1 | 0 | 0
COc1ccc(/C=C/c2cc(Br)c(O)c(Br)c2)cc1 | 16 | 0.16
Oc1c(Br)cc(-c2cccc3oc4ccccc4c23)cc1Br | 36 | 0.36
Cc1cc(/C=C/c2c(Cl)cccc2Cl)cc(C)c1O | 41 | 0.41
Cc1cc(C)cc(Nc2cccc3oc4ccccc4c23)c1 | 0 | 0
O=C(O)c1ccc(C(=O)Nc2cc(Br)cc(Br)c2)cc1 | 13 | 0.13
COc1cccc(/C=C/c2cc(Br)c(N)c(Br)c2)c1 | 1 | 0.01
Oc1cc(O)cc(/C=C/c2cc(Br)c(O)c(Br)c2)c1 | 66 | 0.66
Nc1ccccc1/C=C/c1cc(Br)c(O)c(Br)c1 | 15 | 0.15
Nc1ccc(/C=C/c2cc(Br)c(O)c(Br)c2)cc1 | 0 | 0
O=C(O)c1ccc2nc(-c3cc(Cl)cc(Cl)c3)oc2c1 | 0 | 0
Oc1c(I)cc(/C=C/c2c(Cl)cccc2Cl)cc1I | 92 | 0.92
O=[N+]([O-])c1ccccc1COc1cc(Br)cc(Br)c1 | 0 | 0

Second part, the compound after the results:

inhibition (Rattus norvegicus [1]) [%] | relative binding affinity (RBA) (Rattus norvegicus [2]) | SMILES
35 | 0.35 | Oc1c(Br)cc(/C=C/c2c(Br)cccc2Br)cc1Br
4 | 0.04 | Cc1cccc(CCc2cc(Br)c(O)c(Br)c2)c1
0 | 0 | COc1cccc(OC)c1CCc1cc(Br)c(O)c(Br)c1
0 | 0 | Nc1ccc(CCc2cc(Br)c(O)c(Br)c2)cc1
0 | 0 | Nc1cccc(CCc2cc(Br)c(O)c(Br)c2)c1
62 | 0.62 | Oc1c(Br)cc(-c2nc3cccc(Cl)c3o2)cc1Br
3 | 0.03 | O=[N+]([O-])c1ccccc1CCc1cc(Br)c(O)c(Br)c1
2 | 0.02 | Oc1c(Br)cc(NCc2ccccc2)cc1Br
8 | 0.08 | Oc1c(Br)cc(CCc2ccccc2C(F)(F)F)cc1Br
45 | 0.45 | Oc1c(Br)cc(CCc2c(Cl)cccc2Cl)cc1Br
0 | 0 | Nc1cccc(/C=C/c2cc(Br)c(O)c(Br)c2)c1
35 | 0.35 | Cc1cccc(/C=C/c2cc(Br)c(O)c(Br)c2)c1
42 | 0.42 | Cc1cccc(C)c1/C=C/c1cc(Br)c(O)c(Br)c1
19 | 0.19 | Oc1c(Br)cc(CCc2cccc(F)c2)cc1Br
0 | 0 | COc1ccccc1CCc1cc(Br)c(O)c(Br)c1
40 | 0.4 | Oc1c(Br)cc(/C=C/c2ccc(F)cc2)cc1Br
61 | 0.61 | Oc1c(Br)cc(CCc2c(F)cccc2F)cc1Br
64 | 0.64 | Oc1cccc(/C=C/c2cc(Br)c(O)c(Br)c2)c1
5 | 0.05 | COc1cccc(CCc2cc(Br)c(O)c(Br)c2)c1
40 | 0.4 | Cc1cc(CCc2c(Cl)cccc2Cl)cc(C)c1O
45 | 0.45 | Oc1c(Br)cc(/C=C/c2cccc(I)c2)cc1Br
70 | 0.7 | Oc1c(Br)cc(/C=C/c2c(Cl)cccc2Cl)cc1Br
12 | 0.12 | Cc1cccc(C)c1CCc1cc(Br)c(O)c(Br)c1
